Experimental data: patent publication US10413545B2, “Imidazolin-5-one derivative useful as FASN inhibitors for the treatment of cancer” (Janssen Pharmaceutica NV, priority 2013, dated 2019)
Like-named read-outs stand apart in the source and are kept apart here.

Experiments:
Assay type in all cases: cell-based
[1] = test system: A2780 ovarian cells; experiment: A2780 Ovarian Cell Proliferation Assay in Lipid Reduced Medium, with and without Palmitate (MTT); conditions: Homo sapiens, 10% lipid-reduced serum, 96 h
Protocol: The biological assays described below correspond to comparative assays for ovarian cell proliferation.
2500 cells were seeded in a 96-well clear well plate in 200 μL RPM11640 with 10% Fetal Calf Serum (Hyclone), and incubated at 37° C., 5% CO2, Blanks were wells without cells. The next day the culture medium was aspirated and replaced by 160 μL culture medium with 10% Lipid-Reduced Serum (LRS, Hyclone). […] After 96 h incubation, an MTT assay was performed.
2500 cells were seeded in a 96-well clear well plate in 200 μL RPM11640 with 10% Fetal Calf Serum (Hyclone), and incubated at 37° C., 5% CO2. Blanks were wells without cells. The next day the culture medium was aspirated and replaced by 160 μL culture medium with 10% Lipid-Reduced Serum (LRS, Hyclone). 20 μL test compound (at concentrations of 30 μM, 10 μM, 3 μM, 1 μM, 0.30 μM, 0.10 μM, 0.03 μM and 0.01 μM)/DMSO dilution followed by 20 μL ethanol-BSA solution were added to a final concentrations of 0.2% DMSO, 0.2% fatty-acid-free BSA, 0.25% ethanol. After 96 h incubation an MTT assay was performed.
Raw data generated by the instrument were normalized to % Controlmin values, which were calculated as: % Controlmin=100*(x−mLC)/(mHC−mLC)
where mLC and mHC were the means of the low control wells and high control wells on the plate, after manual exclusion of outliers. A plot of Controlmin versus test compound concentration was fitted to a 4-parameter logistic curve using a non-linear least squares regression method.

[2] = test system: LNCaP_Vancouver prostate cells; experiment: In Vitro LNCaP Vancouver Prostate Cell Proliferation Assay in Lipid Reduced Medium; conditions: 10% lipid reduced serum, 96 h, ATP-glow luminescence; for IC50: Prostate cell, read-out: pIC50 LNCaP_Vancouver prostate cell (converted)
Protocol: LNCaP_Vancouver prostate cells were obtained from the Vancouver Prostate Cancer Centre.
(§1) The next day 10 μl of test compound/DMSO diluted in medium was added (3E-5M, 1E-5M, 3E-6M,1E-6M, 3E-7M, 1E-7M, 3E-8M, 1E-8M final concentration). Compounds were tested in duplicate. After 96 h incubation at 37° C., 5% CO2 25 μl ATP-glow mix was added. The plate was incubated for 30 min at 37° C. and luminescence was measured with the Envision.
(§2) Analysis: Determination of pIC50 Values
(§3) pIC50 values were calculated as follows. Raw data generated by the instruments were normalized to % Controlmin values, which were calculated as: % Controlmin=100*(x−mLC)/(mHC−mLC),
(§4) where mLC and mHC are the means of the low control wells and high control wells on the plate, after manual exclusion of outliers. The relation between the % Controlmin values and concentration was fitted to a 4-parameter logistic curve using a non-linear least squares regression method to determine the pIC50 value. Outlying data points were excluded manually to get a correct fit. The pIC50 corresponds to −log 10(IC50), if the IC50 is expressed in molar units (http://www.ncbi.nlm.nih.qovibooks/NBK91994). The IC50 parameter was always determined by non-linear regression, but one or more of the other parameters may have been held fixed on a relevant input value, such as 0 for the bottom values.

[3] = test system: PC-3M-Luc-C6 prostate cells; experiment: In Vitro PC-3M-Luc-C6 Prostate Cell Proliferation Assay in Lipid Reduced Medium; conditions: 10% lipid reduced serum, 96 h, ATP-glow luminescence; for IC50: Prostate cell, read-out: pIC50 PC-3M-Luc-C6 prostate cell (converted)
Protocol: PC-3M-Luc-C6 prostate cells were obtained from Xenogen Corporation. Cells were maintained in MEM supplemented with 10% Fetal Calf Serum (FCS, Hyclone), 2 mM glutamine, 1 mM sodium pyruvate, 1% BME vitamins (available from for example, Sigma Aldrich), 0.1 mM non Essential Amino Acid and 50 μg/ml Gentamicin. The cells were passaged twice a week.
as §1, with “μl” for “μl of”
as §2, §3, §4

[4] = 25 μM palmitate added (control), read-out: pIC50 With Palmitate (converted)
[5] = no palmitate, read-out: pIC50 Without Palmitate (converted)

| IC50 [1, 4] [nM] | IC50 [1, 5] [nM] | IC50 [2] [nM] | pIC50 PC-3M-Luc-C6 prostate cell [3] | pIC50 LNCaP_Vancouver prostate cell [2] | IC50 [3] [nM] | Structure (SMILES) |
| --- | --- | --- | --- | --- | --- | --- |
| > 10000 | 229 | – | – | – | 661 | Cn1cc(-c2ccc(-c3ccc(C4=NC(C)(C)C(=O)N4CC4CN(C(=O)C5(O)CC5)C4)c(F)c3)cc2)cn1 [Compound 81, 2-(3-fluoro-4′-(1-methyl-1H-pyrazol-4-yl)-[1,1′-biphenyl]-4-yl)-1-((1-(1-hydroxycyclopropanecarbonyl)azetidin-3-yl)methyl)-4,4-dimethyl-1H-imidazol-5(4H)-one] |
| 4370 | 14.5 | – | – | – | 64.6 | Cc1cc(-c2ccc3cc(F)ccc3c2)ccc1C1=NC(C)(C)C(=O)N1CC1CN(C(=O)C2(C)CC2)C1 [Compound 82] |
| > 10000 | 25.7 | – | – | – | 42.7 | Cc1cc(-c2ccc3c(c2)ncn3C)ccc1C1=NC(C)(C)C(=O)N1CC1CN(C(=O)C2(C)CC2)C1 [Compound 83, 4,4-dimethyl-2-(2-methyl-4-(1-methyl-1H-benzo[d]imidazol-5-yl)phenyl)-1-((1-(1-methylcyclopropanecarbonyl)azetidin-3-yl)methyl)-1H-imidazol-5(4H)-one] |
| 4370 | 3.31 | – | – | – | 7.76 | Cc1cc(-c2ccc(-c3cnn(C)c3)cc2)ccc1C1=NC(C)(C)C(=O)N1C[C@@H]1CCN(C(=O)C2(C)CC2)C1 [Compound 84] |
| > 10000 | 3.89 | – | – | – | ~10.7 | Cc1cc(-c2ccc3c(c2)ncn3C)ccc1C1=NC(C)(C)C(=O)N1C[C@@H]1CCN(C(=O)C2(C)CC2)C1 [Compound 85, (R)-4,4-dimethyl-2-(2-methyl-4-(1-methyl-1H-benzo[d]imidazol-5-yl)phenyl)-1-((1-(1-methylcyclopropanecarbonyl)pyrrolidin-3-yl)methyl)-1H-imidazol-5(4H)-one] |
| ~7760 | 3.98 | – | – | – | 6.17 | Cc1cc(-c2ccc3cc(F)ccc3c2)ccc1C1=NC(C)(C)C(=O)N1C[C@@H]1CCN(C(=O)C2(C)CC2)C1 [Compound 86, (R)-2-(4-(6-fluoronaphthalen-2-yl)-2-methylphenyl)-4,4-dimethyl-1-((1-(1-methylcyclopropanecarbonyl)pyrrolidin-3-yl)methyl)-1H-imidazol-5(4H)-one] |

The remaining lines, values behind:

| Structure (SMILES) | IC50 [1, 4] [nM] | IC50 [1, 5] [nM] | IC50 [2] [nM] | pIC50 PC-3M-Luc-C6 prostate cell [3] | pIC50 LNCaP_Vancouver prostate cell [2] | IC50 [3] [nM] |
| --- | --- | --- | --- | --- | --- | --- |
| Cn1cc(-c2ccc(-c3ccc(C4=NC(C)(C)C(=O)N4CC4CN(C(=O)C5CC5)C4)c(F)c3)cc2)cn1 [Compound 33, 1-((1-(cyclopropanecarbonyl)azetidin-3-yl)methyl)-2-(3-fluoro-4′-(1-methyl-1H-pyrazol-4-yl)-[1,1′-biphenyl]-4-yl)-4,4-dimethyl-1H-imidazol-5(4H)-one] | > 10000 | 245 | 2040 | – | – | – |
| CC1(C)N=C(c2ccc(-c3ccc4cccc(F)c4c3)cc2)N(CC2CN(C(=O)C3CC3)C2)C1=O [Compound 40, 1-((1-(cyclopropanecarbonyl)azetidin-3-yl)methyl)-2-(4-(8-fluoronaphthalen-2-yl)phenyl)-4,4-dimethyl-1H-imidazol-5(4H)-one] | 5620 | 468 | 2040 | – | – | – |
| CC1(C)N=C(c2ccc(-c3ccc4cncnc4c3)cc2F)N(CC2CN(C(=O)C3CC3)C2)C1=O [Compound 43, 1-((1-(cyclopropanecarbonyl)azetidin-3-yl)methyl)-2-(2-fluoro-4-(quinazolin-7-yl)phenyl)-4,4-dimethyl-1H-imidazol-5(4H)-one] | – | – | – | 6.06 | 5.63 | – |
| CC1(C)N=C(c2ccc(-c3ccc(-c4ccncc4)cc3)cc2F)N(C[C@@H]2CCN(C(=O)C3CC3)C2)C1=O [Compound 46, (R)-1-((1-(cyclopropanecarbonyl)pyrrolidin-3-yl)methyl)-2-(3-fluoro-4′-(pyridin-4-yl)-[1,1′-biphenyl]-4-yl)-4,4-dimethyl-1H-imidazol-5(4H)-one] | 9550 | 52.5 | 407 | – | – | – |
| CC1(C)N=C(c2ccc(-c3cccc4ncccc34)cc2F)N(C[C@@H]2CCN(C(=O)C3CC3)C2)C1=O [Compound 47, (R)-1-((1-(cyclopropanecarbonyl)pyrrolidin-3-yl)methyl)-2-(2-fluoro-4-(quinolin-5-yl)phenyl)-4,4-dimethyl-1H-imidazol-5(4H)-one] | ~10000 | ~933 | 3550 | – | – | – |
| CC1(C)N=C(c2ccc(-c3cnc4ccccc4c3)cc2F)N(C[C@@H]2CCN(C(=O)C3CC3)C2)C1=O [Compound 48, (R)-1-((1-(cyclopropanecarbonyl)pyrrolidin-3-yl)methyl)-2-(2-fluoro-4-(quinolin-3-yl)phenyl)-4,4-dimethyl-1H-imidazol-5(4H)-one] | > 10000 | 537 | 3980 | – | – | – |
| Cn1ncc2cc(-c3ccc(C4=NC(C)(C)C(=O)N4C[C@@H]4CCN(C(=O)C5CC5)C4)c(F)c3)ccc21 [Compound 53, (R)-1-((1-(cyclopropanecarbonyl)pyrrolidin-3-yl)methyl)-2-(2-fluoro-4-(1-methyl-1H-indazol-5-yl)phenyl)-4,4-dimethyl-1H-imidazol-5(4H)-one] | – | – | 724 | – | – | 132 |
| CC1(C)N=C(c2ccc(-c3ccc4cc(F)ccc4c3)cc2F)N(CC2CN(C(=O)C3CC3)C2)C1=O [Compound 54, 1-((1-(cyclopropanecarbonyl)azetidin-3-yl)methyl)-2-(2-fluoro-4-(6-fluoronaphthalen-2-yl)phenyl)-4,4-dimethyl-1H-imidazol-5(4H)-one] | – | – | 407 | – | – | 129 |
| CC1(C)N=C(c2ccc(-c3ccc4cccc(F)c4c3)cc2F)N(CC2CN(C(=O)C3CC3)C2)C1=O [Compound 55, 1-((1-(cyclopropanecarbonyl)azetidin-3-yl)methyl)-2-(2-fluoro-4-(8-fluoronaphthalen-2-yl)phenyl)-4,4-dimethyl-1H-imidazol-5(4H)-one] | – | – | 120 | – | – | 43.7 |
| CC1(C)N=C(c2ccc(-c3ccc4cnccc4c3)cc2F)N(CC2CN(C(=O)C3CC3)C2)C1=O [Compound 56, 1-((1-(cyclopropanecarbonyl)azetidin-3-yl)methyl)-2-(2-fluoro-4-(isoquinolin-6-yl)phenyl)-4,4-dimethyl-1H-imidazol-5(4H)-one] | – | – | 339 | – | – | 63.1 |
| CC1(C)N=C(c2ccc(-c3nc4ccccc4[nH]3)cc2F)N(C[C@@H]2CCN(C(=O)C3CC3)C2)C1=O [Compound 61, (R)-2-(4-(1H-benzo[d]imidazol-2-yl)-2-fluorophenyl)-1-((1-(cyclopropanecarbonyl)pyrrolidin-3-yl)methyl)-4,4-dimethyl-1H-imidazol-5(4H)-one] | – | – | 5010 | – | – | – |
| CC1(C)N=C(c2ccc(-c3c[nH]c4ccccc34)cc2F)N(CC2CN(C(=O)C3CC3)C2)C1=O [Compound 62, 1-((1-(cyclopropanecarbonyl)azetidin-3-yl)methyl)-2-(2-fluoro-4-(1H-indol-3-yl)phenyl)-4,4-dimethyl-1H-imidazol-5(4H)-one] | – | – | 776 | – | – | 1200 |
| Cc1cc(-c2ccc3c(cnn3C)c2)ccc1C1=NC(C)(C)C(=O)N1C[C@@H]1CCN(C(=O)C2(C)CC2)C1 [Compound 80, (R)-4,4-dimethyl-2-(2-methyl-4-(1-methyl-1H-indazol-5-yl)phenyl)-1-((1-(1-methylcyclopropanecarbonyl)pyrrolidin-3-yl)methyl)-1H-imidazol-5(4H)-one] | > 10000 | 45.7 | – | – | – | 17 |
